Experimental findings from the supplement of paper PMC10307832 are described below.

Holding throughout (test): relative viability (nuclei count vs DMSO), 5 days (fraction); higher = more cells survive
Compound in experiment [1]: Cn1cc(-c2cnn3c(N)c(Br)c([C@@H]4CCCNC4)nc23)cn1 + COc1cc2c(Oc3ccc(NC(=O)C4(C(=O)Nc5ccc(F)cc5)CC4)cc3F)ccnc2cc1OCCCN1CCOCC1 [Foretinib] (partner 0.25 µM)
In a few lines: (§1)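 After 5 days of treatment, lung cancer cells in 1536-well plates were fixed and stained in a single step (final 0.05% Triton X-100, 1% formaldehyde, 1 ug/ml Hoechst) and their nuclei counted on 4× images. Treatment had been applied by pin tool the day after seeding as one drug alone or as a fixed anchor-drug dose with five library-drug doses (not always all listed) in √10 steps. Relative viability is the nuclei count of treated wells divided by that of vehicle wells, and values are medians of duplicate plates.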

Compound in experiment [2]: Cn1cc(-c2cnn3c(N)c(Br)c([C@@H]4CCCNC4)nc23)cn1 + CS(=O)(=O)N1CCN(Cc2cc3nc(-c4cccc5[nH]ncc45)nc(N4CCOCC4)c3s2)CC1 [Pictilisib] (partner 1 µM)
The method, boiled down: as §1

Compound in experiment [3]: Cn1cc(-c2cnn3c(N)c(Br)c([C@@H]4CCCNC4)nc23)cn1 + NC(=O)Nc1cc(-c2cccc(F)c2)sc1C(=O)N[C@H]1CCCNC1 [AZD7762] (partner 0.2 µM)
In a few lines:
as §1

Compound in experiment [4]: Cn1cc(-c2cnn3c(N)c(Br)c([C@@H]4CCCNC4)nc23)cn1 + O=C(CCCCCCC(=O)Nc1ccccc1)NO [Vorinostat] (partner 1 µM)
The method, boiled down: as §1

In the case of NCI-H2347, the relative viability in experiment [1] (first compound 0.05 µM) turned out to be 0.789; in experiment [1] (first compound 0.1581 µM), 0.877; in experiment [1] (first compound 0.5 µM), 0.815; in experiment [1] (first compound 1.581 µM), 0.593; in experiment [1] (first compound 5 µM) it was 0.724; in experiment [2] (first compound 0.05 µM), 0.77. The relative viability in experiment [2] (first compound 0.1581 µM) was found to be 0.63; in experiment [2] (first compound 0.5 µM), 0.759; in experiment [2] (first compound 1.581 µM) it was 0.264; in experiment [2] (first compound 5 µM), 0.57; in experiment [3] (first compound 0.05 µM), 0.77; in experiment [3] (first compound 0.1581 µM), 0.635. In addition, the relative viability in experiment [3] (first compound 0.5 µM) is 0.76; in experiment [3] (first compound 1.581 µM) it was 0.65; in experiment [3] (first compound 5 µM), 0.532; in experiment [4] (first compound 0.05 µM), 0.525; in experiment [4] (first compound 0.1581 µM), 0.585; in experiment [4] (first compound 0.5 µM), 0.511. Also, the figures for the relative viability in experiment [4] (first compound 1.581 µM) and in experiment [4] (first compound 5 µM) were 0.482 and 0.4, respectively.

As for NCI-H2126, the relative viability in experiment [1] (first compound 0.05 µM) came out at 1.2; in experiment [1] (first compound 0.1581 µM) it was 1.3; in experiment [1] (first compound 0.5 µM) it was 1.11; in experiment [1] (first compound 1.581 µM), 1.02; in experiment [1] (first compound 5 µM) it was 1.53; in experiment [2] (first compound 0.05 µM) it was 0.462. Also, the relative viability in experiment [2] (first compound 0.1581 µM) was 0.519; in experiment [2] (first compound 0.5 µM), 0.512; in experiment [2] (first compound 1.581 µM), 0.52; in experiment [2] (first compound 5 µM), 0.524; in experiment [3] (first compound 0.05 µM), 1.05; in experiment [3] (first compound 0.1581 µM), 1.03. Besides, the relative viability in experiment [3] (first compound 0.5 µM) stood at 0.997; in experiment [3] (first compound 1.581 µM), 0.993; in experiment [3] (first compound 5 µM), 0.986; in experiment [4] (first compound 0.05 µM), 0.694; in experiment [4] (first compound 0.1581 µM), 0.788; in experiment [4] (first compound 0.5 µM) it was 0.762. Besides, the relative viability in experiment [4] (first compound 1.581 µM) was 0.683; in experiment [4] (first compound 5 µM) it was 0.68.

As for HCC-827, the relative viability in experiment [1] (first compound 0.05 µM) was 1.09; in experiment [1] (first compound 0.1581 µM), 1.11; in experiment [1] (first compound 0.5 µM) it was 1.06; in experiment [1] (first compound 1.581 µM), 1.02; in experiment [1] (first compound 5 µM), 1.02; in experiment [2] (first compound 0.05 µM) it was 0.999. The relative viability in experiment [2] (first compound 0.1581 µM) came to 1.13; in experiment [2] (first compound 0.5 µM), 0.974; in experiment [2] (first compound 1.581 µM), 1; in experiment [2] (first compound 5 µM), 0.928; in experiment [3] (first compound 0.05 µM), 0.183; in experiment [3] (first compound 0.1581 µM) it was 0.188. The relative viability in experiment [3] (first compound 0.5 µM) worked out at 0.193; in experiment [3] (first compound 1.581 µM), 0.211; in experiment [3] (first compound 5 µM) it was 0.17; in experiment [4] (first compound 0.05 µM), 0.741; in experiment [4] (first compound 0.1581 µM), 0.929; in experiment [4] (first compound 0.5 µM), 1.02. The relative viability turned out to be 0.917 in experiment [4] (first compound 1.581 µM) and 0.797 in experiment [4] (first compound 5 µM).

Regarding NCI-H3122, the relative viability in experiment [1] (first compound 0.05 µM) is 0.977; in experiment [1] (first compound 0.1581 µM) it was 1.02; in experiment [1] (first compound 0.5 µM), 0.92; in experiment [1] (first compound 1.581 µM) it was 0.992; in experiment [1] (first compound 5 µM), 0.977; in experiment [2] (first compound 0.05 µM), 0.635. Moreover, the relative viability in experiment [2] (first compound 0.1581 µM) came out at 0.647; in experiment [2] (first compound 0.5 µM), 0.604; in experiment [2] (first compound 1.581 µM) it was 0.526; in experiment [2] (first compound 5 µM), 0.606; in experiment [3] (first compound 0.05 µM), 0.981; in experiment [3] (first compound 0.1581 µM), 1.07. The relative viability in experiment [3] (first compound 0.5 µM) came out at 1; in experiment [3] (first compound 1.581 µM), 0.883; in experiment [3] (first compound 5 µM) it was 1.16; in experiment [4] (first compound 0.05 µM), 0.999; in experiment [4] (first compound 0.1581 µM), 1.12; in experiment [4] (first compound 0.5 µM) it was 0.987. The relative viability in experiment [4] (first compound 1.581 µM) came to 0.88; in experiment [4] (first compound 5 µM), 1.11.

For the cell line HOP-62, the relative viability is 1.17 in experiment [1] (first compound 0.05 µM); 1.16 in experiment [1] (first compound 0.1581 µM); 1.06 in experiment [1] (first compound 0.5 µM); 1 in experiment [1] (first compound 1.581 µM); 0.985 in experiment [1] (first compound 5 µM); 0.896 in experiment [2] (first compound 0.05 µM). In addition, the relative viability in experiment [2] (first compound 0.1581 µM) stood at 0.699; in experiment [2] (first compound 0.5 µM) it was 0.586; in experiment [2] (first compound 1.581 µM) it was 0.444; in experiment [2] (first compound 5 µM), 0.455; in experiment [3] (first compound 0.05 µM), 0.526; in experiment [3] (first compound 0.1581 µM), 1.06. The relative viability was 0.622 in experiment [3] (first compound 0.5 µM); 0.534 in experiment [3] (first compound 1.581 µM); 0.271 in experiment [3] (first compound 5 µM); 0.698 in experiment [4] (first compound 0.05 µM); 0.775 in experiment [4] (first compound 0.1581 µM); 0.645 in experiment [4] (first compound 0.5 µM). Moreover, the relative viability turned out to be 0.386 in experiment [4] (first compound 1.581 µM) and 0.209 in experiment [4] (first compound 5 µM).
